Laboratory results from ChEMBL document CHEMBL4507268 (2021).

What was measured:
Conditions in all cases: Compound concentration 1000.0 nM
[1] = biological target: Serine/threonine-protein kinase Nek6 (Homo sapiens) (UniProt Q9HC98)
[2] = biological target: Ephrin type-A receptor 6 (Homo sapiens) (UniProt Q9UF33)
[3] = biological target: T1, Ephrin type-A receptor 8 (Homo sapiens) (UniProt P29322)
T1 sequence (whole entry): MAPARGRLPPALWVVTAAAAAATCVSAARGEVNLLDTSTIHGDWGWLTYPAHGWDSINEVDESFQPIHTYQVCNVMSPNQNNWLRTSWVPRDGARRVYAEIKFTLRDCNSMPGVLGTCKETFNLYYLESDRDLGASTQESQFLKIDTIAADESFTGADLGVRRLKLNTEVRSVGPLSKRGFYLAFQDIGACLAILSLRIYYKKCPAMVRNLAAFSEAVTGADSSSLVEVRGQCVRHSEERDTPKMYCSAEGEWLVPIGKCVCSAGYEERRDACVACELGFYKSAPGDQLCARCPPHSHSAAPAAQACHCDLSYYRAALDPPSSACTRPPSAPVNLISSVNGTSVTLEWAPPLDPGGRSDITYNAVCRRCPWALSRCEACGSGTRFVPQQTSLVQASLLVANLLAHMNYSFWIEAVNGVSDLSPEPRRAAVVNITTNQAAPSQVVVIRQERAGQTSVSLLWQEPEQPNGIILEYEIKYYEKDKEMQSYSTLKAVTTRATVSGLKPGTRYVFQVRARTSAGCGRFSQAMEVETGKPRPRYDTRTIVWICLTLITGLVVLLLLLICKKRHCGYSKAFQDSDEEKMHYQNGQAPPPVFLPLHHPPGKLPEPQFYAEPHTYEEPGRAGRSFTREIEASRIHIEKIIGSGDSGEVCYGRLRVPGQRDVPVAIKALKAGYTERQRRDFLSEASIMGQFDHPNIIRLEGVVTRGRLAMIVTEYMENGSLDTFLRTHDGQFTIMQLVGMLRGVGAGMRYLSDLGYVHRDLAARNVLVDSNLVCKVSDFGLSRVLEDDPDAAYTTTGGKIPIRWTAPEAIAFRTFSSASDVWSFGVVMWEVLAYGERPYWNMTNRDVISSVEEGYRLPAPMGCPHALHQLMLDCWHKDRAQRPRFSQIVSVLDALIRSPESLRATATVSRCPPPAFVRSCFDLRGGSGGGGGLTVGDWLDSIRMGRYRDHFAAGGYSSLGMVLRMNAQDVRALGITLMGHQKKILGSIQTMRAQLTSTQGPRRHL

[4] = biological target: T2, Interleukin-1 receptor-associated kinase 4 (Homo sapiens) (UniProt Q9NWZ3)
T2 sequence (whole entry): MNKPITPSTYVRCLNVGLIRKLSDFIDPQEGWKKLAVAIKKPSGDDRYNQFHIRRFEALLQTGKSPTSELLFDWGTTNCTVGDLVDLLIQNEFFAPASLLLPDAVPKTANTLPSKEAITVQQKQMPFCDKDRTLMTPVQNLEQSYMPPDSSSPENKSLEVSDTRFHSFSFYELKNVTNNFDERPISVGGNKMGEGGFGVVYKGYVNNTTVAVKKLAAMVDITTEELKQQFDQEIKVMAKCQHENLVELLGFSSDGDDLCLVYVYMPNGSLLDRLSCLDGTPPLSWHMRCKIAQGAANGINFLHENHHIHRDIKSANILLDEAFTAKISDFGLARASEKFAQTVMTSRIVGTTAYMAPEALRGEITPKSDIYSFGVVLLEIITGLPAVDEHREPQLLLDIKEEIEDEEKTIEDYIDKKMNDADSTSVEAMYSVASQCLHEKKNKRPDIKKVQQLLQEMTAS

[5] = biological target: Aurora kinase B (Homo sapiens) (UniProt Q96GD4)
[6] = biological target: Cyclin-dependent kinase 18 (Homo sapiens) (UniProt Q07002)
[7] = biological target: Mitogen-activated protein kinase kinase kinase 14 (Homo sapiens) (UniProt Q99558)
[8] = biological target: Mitogen-activated protein kinase kinase kinase kinase 5 (Homo sapiens) (UniProt Q9Y4K4)
[9] = biological target: T3, Dual specificity protein kinase TTK (Homo sapiens) (UniProt P33981)
T3 sequence (whole entry): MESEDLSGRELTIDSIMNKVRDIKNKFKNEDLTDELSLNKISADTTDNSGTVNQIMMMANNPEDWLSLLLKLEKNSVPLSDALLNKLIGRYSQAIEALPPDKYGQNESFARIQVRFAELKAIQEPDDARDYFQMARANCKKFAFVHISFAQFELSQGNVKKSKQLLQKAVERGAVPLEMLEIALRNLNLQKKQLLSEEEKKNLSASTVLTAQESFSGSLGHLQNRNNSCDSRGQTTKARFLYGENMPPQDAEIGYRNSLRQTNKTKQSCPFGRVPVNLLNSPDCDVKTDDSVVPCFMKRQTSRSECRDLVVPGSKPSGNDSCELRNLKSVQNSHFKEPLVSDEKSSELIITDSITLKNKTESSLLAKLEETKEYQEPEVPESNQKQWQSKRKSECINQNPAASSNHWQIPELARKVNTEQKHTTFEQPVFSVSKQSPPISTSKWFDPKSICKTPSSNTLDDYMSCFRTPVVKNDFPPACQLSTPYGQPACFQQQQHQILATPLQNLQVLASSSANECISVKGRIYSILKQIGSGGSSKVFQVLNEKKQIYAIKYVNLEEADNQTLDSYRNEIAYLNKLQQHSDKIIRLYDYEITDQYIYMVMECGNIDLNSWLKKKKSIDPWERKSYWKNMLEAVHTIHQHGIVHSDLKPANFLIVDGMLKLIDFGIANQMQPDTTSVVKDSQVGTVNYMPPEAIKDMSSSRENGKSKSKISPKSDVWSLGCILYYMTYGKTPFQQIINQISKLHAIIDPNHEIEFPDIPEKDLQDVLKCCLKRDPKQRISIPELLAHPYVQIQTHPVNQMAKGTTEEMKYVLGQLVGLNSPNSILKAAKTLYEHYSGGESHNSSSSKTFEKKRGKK

[10] = system: Phosphatidylinositol 4,5-bisphosphate 3-kinase catalytic subunit alpha isoform (Homo sapiens), P42336 [I800L]
[11] = biological target: Protein kinase C eta type (Homo sapiens) (UniProt P24723)
[12] = biological target: Serine/threonine-protein kinase PLK3 (Homo sapiens) (UniProt Q9H4B4)
[13] = system: Phosphatidylinositol 4,5-bisphosphate 3-kinase catalytic subunit alpha isoform (Homo sapiens), P42336 [C420R]
[14] = biological target: SRSF protein kinase 3 (Homo sapiens) (UniProt Q9UPE1)

Measured: residual activity

Chain of Serine/threonine-protein kinase Nek6 (Homo sapiens) (Q9HC98 whole entry): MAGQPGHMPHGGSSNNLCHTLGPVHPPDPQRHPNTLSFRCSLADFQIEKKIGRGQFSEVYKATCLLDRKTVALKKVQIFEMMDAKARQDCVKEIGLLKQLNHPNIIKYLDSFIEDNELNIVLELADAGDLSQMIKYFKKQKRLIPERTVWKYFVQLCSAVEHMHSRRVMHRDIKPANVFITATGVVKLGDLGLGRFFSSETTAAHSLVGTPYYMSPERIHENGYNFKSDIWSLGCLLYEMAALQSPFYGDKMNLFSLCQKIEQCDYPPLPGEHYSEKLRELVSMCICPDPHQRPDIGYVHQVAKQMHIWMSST
Chain of Cyclin-dependent kinase 18 (Homo sapiens) (Q07002 whole entry): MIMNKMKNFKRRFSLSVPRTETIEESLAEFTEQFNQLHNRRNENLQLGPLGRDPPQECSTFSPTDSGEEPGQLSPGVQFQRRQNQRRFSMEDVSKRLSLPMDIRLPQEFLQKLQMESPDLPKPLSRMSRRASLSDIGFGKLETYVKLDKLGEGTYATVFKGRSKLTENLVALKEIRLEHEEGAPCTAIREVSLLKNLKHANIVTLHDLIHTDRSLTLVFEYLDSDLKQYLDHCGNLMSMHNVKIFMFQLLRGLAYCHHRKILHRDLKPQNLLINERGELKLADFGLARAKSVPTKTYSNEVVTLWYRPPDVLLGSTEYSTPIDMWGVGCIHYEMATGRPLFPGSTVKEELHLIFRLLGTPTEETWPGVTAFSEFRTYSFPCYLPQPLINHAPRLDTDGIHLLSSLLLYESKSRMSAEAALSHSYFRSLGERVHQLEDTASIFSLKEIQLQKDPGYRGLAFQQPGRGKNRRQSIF
Chain of Aurora kinase B (Homo sapiens) (Q96GD4 whole entry): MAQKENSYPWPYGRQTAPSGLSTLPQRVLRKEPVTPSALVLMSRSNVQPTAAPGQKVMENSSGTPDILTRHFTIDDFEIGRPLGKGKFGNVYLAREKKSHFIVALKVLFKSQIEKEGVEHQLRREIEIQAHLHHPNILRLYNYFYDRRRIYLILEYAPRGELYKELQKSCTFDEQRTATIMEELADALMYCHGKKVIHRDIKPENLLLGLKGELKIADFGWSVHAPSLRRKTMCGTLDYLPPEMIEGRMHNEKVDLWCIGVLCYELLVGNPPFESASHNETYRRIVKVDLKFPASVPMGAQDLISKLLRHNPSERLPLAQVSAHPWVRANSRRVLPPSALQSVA
Chain of SRSF protein kinase 3 (Homo sapiens) (Q9UPE1 whole entry): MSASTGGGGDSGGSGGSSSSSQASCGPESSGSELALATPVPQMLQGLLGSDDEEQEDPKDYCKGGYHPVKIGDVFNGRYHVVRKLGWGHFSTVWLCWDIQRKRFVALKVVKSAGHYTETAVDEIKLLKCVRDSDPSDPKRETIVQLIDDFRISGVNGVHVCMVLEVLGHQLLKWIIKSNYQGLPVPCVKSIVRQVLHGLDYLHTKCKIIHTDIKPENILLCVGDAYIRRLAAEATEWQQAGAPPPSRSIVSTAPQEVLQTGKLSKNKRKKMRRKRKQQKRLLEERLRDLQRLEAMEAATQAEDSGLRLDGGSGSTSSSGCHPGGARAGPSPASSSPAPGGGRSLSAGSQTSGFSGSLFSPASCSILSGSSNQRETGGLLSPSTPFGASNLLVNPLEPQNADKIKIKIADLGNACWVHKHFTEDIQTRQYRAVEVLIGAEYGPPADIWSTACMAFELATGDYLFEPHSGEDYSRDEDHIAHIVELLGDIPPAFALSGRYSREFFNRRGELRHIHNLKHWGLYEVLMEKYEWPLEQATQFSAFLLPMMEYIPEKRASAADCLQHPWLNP
Chain of Mitogen-activated protein kinase kinase kinase 14 (Homo sapiens) (Q99558 whole entry, looked up): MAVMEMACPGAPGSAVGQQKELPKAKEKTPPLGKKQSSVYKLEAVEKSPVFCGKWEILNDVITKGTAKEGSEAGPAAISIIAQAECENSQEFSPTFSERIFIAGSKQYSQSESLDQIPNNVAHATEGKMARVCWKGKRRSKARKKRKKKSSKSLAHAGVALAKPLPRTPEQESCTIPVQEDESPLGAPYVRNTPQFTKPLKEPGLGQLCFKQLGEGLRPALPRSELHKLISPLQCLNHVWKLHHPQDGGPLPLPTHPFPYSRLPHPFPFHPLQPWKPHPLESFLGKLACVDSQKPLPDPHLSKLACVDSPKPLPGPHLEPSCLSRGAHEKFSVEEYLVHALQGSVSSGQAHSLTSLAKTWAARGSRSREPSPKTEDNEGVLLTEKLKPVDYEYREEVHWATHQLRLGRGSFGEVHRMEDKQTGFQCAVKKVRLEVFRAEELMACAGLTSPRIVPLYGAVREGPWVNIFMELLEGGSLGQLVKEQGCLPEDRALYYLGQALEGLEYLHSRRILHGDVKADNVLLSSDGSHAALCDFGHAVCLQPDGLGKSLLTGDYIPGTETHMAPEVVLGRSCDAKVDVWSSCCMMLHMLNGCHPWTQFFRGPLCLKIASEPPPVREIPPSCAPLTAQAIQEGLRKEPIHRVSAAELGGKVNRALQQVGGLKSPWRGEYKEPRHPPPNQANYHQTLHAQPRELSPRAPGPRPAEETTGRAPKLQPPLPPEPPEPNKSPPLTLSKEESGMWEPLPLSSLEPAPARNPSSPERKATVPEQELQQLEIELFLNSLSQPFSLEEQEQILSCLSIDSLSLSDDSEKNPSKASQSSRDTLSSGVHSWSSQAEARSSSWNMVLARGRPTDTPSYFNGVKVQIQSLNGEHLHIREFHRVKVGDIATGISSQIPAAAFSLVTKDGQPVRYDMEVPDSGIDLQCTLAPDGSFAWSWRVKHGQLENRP
Chain of Protein kinase C eta type (Homo sapiens) (P24723 whole entry): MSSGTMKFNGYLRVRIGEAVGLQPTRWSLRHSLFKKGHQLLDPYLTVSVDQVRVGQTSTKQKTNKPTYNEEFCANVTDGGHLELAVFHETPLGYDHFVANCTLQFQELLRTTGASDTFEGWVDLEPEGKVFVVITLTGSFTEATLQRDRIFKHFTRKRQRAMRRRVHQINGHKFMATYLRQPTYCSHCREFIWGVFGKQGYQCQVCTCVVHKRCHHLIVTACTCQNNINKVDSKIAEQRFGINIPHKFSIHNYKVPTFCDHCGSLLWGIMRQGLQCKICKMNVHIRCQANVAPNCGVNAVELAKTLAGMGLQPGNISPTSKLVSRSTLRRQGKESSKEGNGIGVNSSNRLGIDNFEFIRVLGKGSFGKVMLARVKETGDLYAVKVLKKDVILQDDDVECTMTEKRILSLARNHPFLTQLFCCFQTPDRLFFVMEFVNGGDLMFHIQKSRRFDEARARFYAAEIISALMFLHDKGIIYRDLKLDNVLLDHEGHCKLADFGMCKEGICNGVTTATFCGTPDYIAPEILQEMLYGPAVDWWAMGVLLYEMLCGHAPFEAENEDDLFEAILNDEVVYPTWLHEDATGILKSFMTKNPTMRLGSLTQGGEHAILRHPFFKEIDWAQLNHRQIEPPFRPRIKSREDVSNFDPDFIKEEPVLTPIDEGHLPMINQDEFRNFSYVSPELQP
Chain of Phosphatidylinositol 4,5-bisphosphate 3-kinase catalytic subunit alpha isoform (Homo sapiens), P42336 [C420R] (P42336 whole entry C420R, canonical isoform): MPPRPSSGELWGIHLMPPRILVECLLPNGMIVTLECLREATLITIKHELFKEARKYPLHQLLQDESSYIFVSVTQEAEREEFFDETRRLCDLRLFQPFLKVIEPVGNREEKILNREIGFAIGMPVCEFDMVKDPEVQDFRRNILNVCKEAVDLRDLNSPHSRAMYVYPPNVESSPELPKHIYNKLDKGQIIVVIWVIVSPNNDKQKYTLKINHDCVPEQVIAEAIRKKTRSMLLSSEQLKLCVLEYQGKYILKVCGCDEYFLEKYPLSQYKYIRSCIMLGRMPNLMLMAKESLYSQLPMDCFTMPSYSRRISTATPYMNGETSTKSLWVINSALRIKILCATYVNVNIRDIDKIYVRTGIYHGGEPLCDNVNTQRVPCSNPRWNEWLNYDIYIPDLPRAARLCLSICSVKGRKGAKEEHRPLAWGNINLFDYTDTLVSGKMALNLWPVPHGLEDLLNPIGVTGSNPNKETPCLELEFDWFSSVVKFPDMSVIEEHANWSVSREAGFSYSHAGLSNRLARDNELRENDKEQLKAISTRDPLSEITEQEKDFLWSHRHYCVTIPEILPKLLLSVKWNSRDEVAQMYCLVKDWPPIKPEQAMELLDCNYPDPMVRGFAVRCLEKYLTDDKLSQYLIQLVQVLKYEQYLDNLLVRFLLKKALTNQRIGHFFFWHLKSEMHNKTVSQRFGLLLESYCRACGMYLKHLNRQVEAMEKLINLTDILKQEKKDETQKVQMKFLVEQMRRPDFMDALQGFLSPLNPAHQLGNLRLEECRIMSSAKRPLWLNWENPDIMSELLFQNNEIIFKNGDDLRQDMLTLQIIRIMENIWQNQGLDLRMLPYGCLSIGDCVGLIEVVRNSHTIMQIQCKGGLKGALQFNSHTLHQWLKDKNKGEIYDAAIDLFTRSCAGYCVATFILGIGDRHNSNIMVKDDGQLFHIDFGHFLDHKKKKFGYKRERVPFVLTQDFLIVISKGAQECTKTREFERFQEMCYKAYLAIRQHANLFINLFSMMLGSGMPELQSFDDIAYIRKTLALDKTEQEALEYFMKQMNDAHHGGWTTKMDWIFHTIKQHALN
Chain of Serine/threonine-protein kinase PLK3 (Homo sapiens) (Q9H4B4 whole entry, looked up, canonical isoform): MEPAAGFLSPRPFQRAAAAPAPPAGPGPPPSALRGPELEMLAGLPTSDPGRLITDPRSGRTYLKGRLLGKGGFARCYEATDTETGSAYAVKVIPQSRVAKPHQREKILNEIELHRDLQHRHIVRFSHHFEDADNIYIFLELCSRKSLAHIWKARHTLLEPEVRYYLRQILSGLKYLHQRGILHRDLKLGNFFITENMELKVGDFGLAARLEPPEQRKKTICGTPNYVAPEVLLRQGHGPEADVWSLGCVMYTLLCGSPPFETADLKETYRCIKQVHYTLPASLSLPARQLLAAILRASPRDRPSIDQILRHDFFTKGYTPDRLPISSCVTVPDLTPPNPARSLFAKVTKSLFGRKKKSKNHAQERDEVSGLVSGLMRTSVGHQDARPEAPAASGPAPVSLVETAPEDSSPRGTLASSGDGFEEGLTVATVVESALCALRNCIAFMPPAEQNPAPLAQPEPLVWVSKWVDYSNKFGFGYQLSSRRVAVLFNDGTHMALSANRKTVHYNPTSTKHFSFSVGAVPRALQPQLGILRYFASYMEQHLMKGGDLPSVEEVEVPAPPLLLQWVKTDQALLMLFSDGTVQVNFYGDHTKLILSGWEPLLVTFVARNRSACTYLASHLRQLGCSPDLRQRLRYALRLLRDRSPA

Cc1nc(C2CCN(C(=O)c3ccc(OC(F)(F)F)cc3N)CC2)c2ncc(N3CCN(C)CC3)cc2n1 [BAY-693]
inactive: [1] 100% | [2] 95% | [3] 98% | [4] 90% | [5] 88% | [6] 100% | [7] 100% | [8] 100% | [9] 100% | [10] 96% | [11] 88% | [12] 100% | [13] 86% | [14] 100%

CN1CCN(c2cnc3c(C4CCN(C(=O)c5ccc(OC(F)(F)F)cc5N)CC4)ncnc3c2)CC1 [BAY-885]
inactive: [1] 92% | [2] 100% | [3] 100% | [4] 90% | [5] 90% | [6] 100% | [7] 100% | [8] 99% | [9] 100% | [10] 100% | [11] 86% | [12] 100% | [13] 94% | [14] 100%
